Usually IC50 stands for the concentration that gives 50% inhibition.

The target in assay [1] is T1, Human CD73 (amino acid residues 27-549) (Homo sapiens, UniProt P21589).
T1 construct: Human CD73 (amino acid residues 27-549); His tag (N); made in house; host or cells: E. coli
T1 sequence (P21589 27-549): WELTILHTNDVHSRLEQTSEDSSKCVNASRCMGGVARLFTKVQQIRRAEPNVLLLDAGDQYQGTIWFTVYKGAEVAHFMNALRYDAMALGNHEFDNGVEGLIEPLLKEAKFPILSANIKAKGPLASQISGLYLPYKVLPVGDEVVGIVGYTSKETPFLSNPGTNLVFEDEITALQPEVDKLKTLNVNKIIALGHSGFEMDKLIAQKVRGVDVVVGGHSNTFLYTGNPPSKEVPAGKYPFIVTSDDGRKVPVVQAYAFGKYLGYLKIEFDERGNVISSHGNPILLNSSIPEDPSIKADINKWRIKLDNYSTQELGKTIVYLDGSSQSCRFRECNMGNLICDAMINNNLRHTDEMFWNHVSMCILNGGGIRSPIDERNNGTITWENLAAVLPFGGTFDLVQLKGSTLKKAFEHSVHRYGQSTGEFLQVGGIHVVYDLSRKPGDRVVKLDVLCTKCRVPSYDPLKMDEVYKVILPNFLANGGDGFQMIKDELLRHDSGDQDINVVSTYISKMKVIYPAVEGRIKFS
The assay is described as follows: CD73 enzymatic assay (luciferase-based indirect assay, CellTiter-Glo). It is filed as biochemical. The settings on record: 0.4 nM CD73, 150 μM AMP, 1 hour at room temperature. Put shortly: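 Residual AMP inhibits luciferase, so luminescence reports CD73 turnover; read with CellTiter-Glo 2.0 plus 1 μM final ATP, 30 min. Reaction used 0.4 nM N-His CD73 (27-549, E. coli), 150 μM AMP, HEPES pH 7.4 with Tween 20, 1 h at room temperature. IC50 fitted by nonlinear regression.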
(In ATP-based viability assays light output follows the ATP content of the culture.)

The target in the next assay is T2, human CD73 (Homo sapiens, UniProt P21589).
T2 construct: expressed in transfected cells
T2 sequence (P21589 27-549): T1 sequence (P21589 27-549)
The experiment in a line: Inhibitor activity against CD73 in cell based assay (CD73 expressing CHO-K1 cells). The settings on record: CHO-K1 cells expressing human CD73, 150 μM AMP, 4 hours of incubation; read-out: CHO-K1 CELL VARIANT: CD73 IC50. The method, boiled down:
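Residual supernatant AMP was quantified via CellTiter-Glo luminescence (1 μM ATP added, 30 min, room temperature) after a 4 h exposure of human CD73-expressing CHO-K1 cells to 150 μM AMP plus compound, top final 10 μM, 8 points. IC50 came from nonlinear regression of percent inhibition.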

Turning to `O=C(NC1CCCC(F)(F)C1)O[C@H]1CN(c2cnn(CCO)c(=O)c2Cl)C[C@@H]1F` (stereo partly drawn) [P-0507, (3S,4S)-1-(5-chloro-1-(2-hydroxyethyl)-6-oxo-1,6-dihydropyridazin-4-yl)-4-fluoropyrrolidin-3-yl (3,3-difluorocyclohexyl)carbamate], the half-maximal inhibitory concentration (IC50) (in assay [1]; at human CD73) was 0.001 to 10 µM throughout.
Regarding `O=C(N[C@@H]1CCC[C@H]1CO)O[C@@H]1CCN(c2cn[nH]c(=O)c2Cl)C1` [P-0508, (R)-1-(5-chloro-6-oxo-1,6-dihydropyridazin-4-yl)pyrrolidin-3-yl ((1R,2R)-2-(hydroxymethyl)cyclopentyl) carbamate], the IC50 (in assay [1]; on human CD73) was 0.001 to 10 µM throughout.
Regarding `O=C(N[C@@H]1CCC[C@H]1C(F)F)O[C@@H]1CCN(c2cn[nH]c(=O)c2Cl)C1` [P-0509, (R)-1-(5-chloro-6-oxo-1,6-dihydropyridazin-4-yl)pyrrolidin-3-yl ((1R,2R)-2-(difluoromethyl)cyclopentyl) carbamate], the IC50 (in assay [1]; at human CD73) was 0.001 to 10 µM in each case.
On to `CC(F)(F)[C@@H]1CCC[C@H]1NC(=O)O[C@@H]1CCN(c2cn[nH]c(=O)c2Cl)C1` [P-0510, (R)-1-(5-chloro-6-oxo-1,6-dihydropyridazin-4-yl)pyrrolidin-3-yl ((1R,2R)-2-(1,1-difluoroethyl)cyclopentyl) carbamate], for which the IC50 (in assay [1]; at human CD73) was 0.001 to 10 µM in each case.
Take `O=C(N[C@H]1CCCC(F)(F)C1)O[C@@H]1CCN(c2cn[nH]c(=O)c2Cl)C1` [P-0511, (R)-1-(5-chloro-6-oxo-1,6-dihydropyridazin-4-yl)pyrrolidin-3-yl ((S)-3,3-difluorocyclohexyl)carbamate]: the IC50 (in assay [1]; on human CD73) was 0.001 to 10 µM throughout.
For `O=C(N[C@@H]1CCCC(F)(F)C1)O[C@@H]1CCN(c2cn[nH]c(=O)c2Cl)C1` [P-0512, (R)-1-(5-chloro-6-oxo-1,6-dihydropyridazin-4-yl)pyrrolidin-3-yl ((R)-3,3-difluorocyclohexyl)carbamate], the IC50 (in assay [1]; on human CD73) was 0.001 to 10 µM throughout.
With `O=C(N[C@@H]1CCCC(F)(F)C1)O[C@@H]1CCN(c2cnn(CCO)c(=O)c2Cl)C1` [P-0513, (R)-1-(5-chloro-1-(2-hydroxyethyl)-6-oxo-1,6-dihydropyridazin-4-yl)pyrrolidin-3-yl ((R)-3,3-difluorocyclohexyl)carbamate], the IC50 (in assay [1]; at human CD73) was 0.001 to 10 µM each time.
As for `O=C(N[C@H]1CCCC(F)(F)C1)O[C@@H]1CCN(c2cnn(CCO)c(=O)c2Cl)C1` [P-0514, (R)-1-(5-chloro-1-(2-hydroxyethyl)-6-oxo-1,6-dihydropyridazin-4-yl)pyrrolidin-3-yl ((S)-3,3-difluorocyclohexyl)carbamate], the IC50 (in assay [1]; at human CD73) was 0.001 to 10 µM in each case.
Consider `N#CC1(NC(=O)O[C@@H]2CCN(c3cn[nH]c(=O)c3Cl)C2)CCC1` [P-0515, (R)-1-(5-chloro-6-oxo-1,6-dihydropyridazin-4-yl)pyrrolidin-3-yl (1-cyanocyclobutyl)carbamate], for which the half-maximal inhibitory concentration (IC50) (in assay [1]; at human CD73) was 0.001 to 10 µM throughout.
In the case of `O=C(NC1CCC1)O[C@@H]1CCN(c2cn[nH]c(=O)c2Cl)C1` [P-0516, (R)-1-(5-chloro-6-oxo-1,6-dihydropyridazin-4-yl)pyrrolidin-3-yl cyclobutylcarbamate], the IC50 (in assay [1]; at human CD73) was 0.001 to 10 µM throughout.
Turning to `CC1(C)C(NC(=O)O[C@@H]2CCN(c3cn[nH]c(=O)c3Cl)C2)C1(C)C` [P-0517, (R)-1-(5-chloro-6-oxo-1,6-dihydropyridazin-4-yl)pyrrolidin-3-yl (2,2,3,3-tetramethylcyclopropyl) carbamate], the 50% inhibitory concentration (IC50) (in assay [1]; on human CD73) was 0.001 to 10 µM throughout.
As to `O=C(NC1(C(F)(F)F)CCC1)O[C@@H]1CCN(c2cn[nH]c(=O)c2Cl)C1` [P-0518, (R)-1-(5-chloro-6-oxo-1,6-dihydropyridazin-4-yl)pyrrolidin-3-yl (1-(trifluoromethyl)cyclobutyl) carbamate], the IC50 (in assay [1]; at human CD73) was 0.001 to 10 µM each time.

For the origin of these results see patent US12509444B2, “Compounds and methods for CD73 modulation and indications therefor” (Plexxikon Inc., priority 2019, dated 2025).
